# Literature values, collected in patent US12594435B2, “Interstitial photodynamic therapy” (Simphotek, Inc., priority 2020, dated 2026).
# Read-outs that look alike come from different tables or passages of the source.
# Key:
# [1] = for β, k4/k2 / ξ photokinetic parameter / σ, k1/(k7[A]): Table 6, Zhu et. al. 2015, Ong et al 2018
# tumors in mice = details: for Threshold [^1O2]dose: superficial PDT
# experimental tumours [2] = details: Rabbits, Shafirstein et. al., 2018
# experimental tumours [3] = details: Mice, Shafirstein et. al., 2018
# Human prostate = details: Davidson et.al., 2009
# [4] = Zhu et. al., 2015, labeled [^1O2]rx in the publication
# [5] = vascular PDT, Sheng et. al., 2020
# [6] = I-PDT with light dose as dose metric
# [7] = surface PDT, Sheng et. al., 2019
# [8] = simulation parameter used in Dosie simulations, Examples 3 and 4
compound,measurement,setting,value
Oc1cccc(-c2c3nc(c(-c4cccc(O)c4)c4ccc([nH]4)c(-c4cccc(O)c4)c4nc(c(-c5cccc(O)c5)c5ccc2[nH]5)CC4)C=C3)c1 [mTHPC],"ε, PS extinction coefficient",[1]; 650 nm,mTHPC (650 nm): 0.048 cm^−1μM^−1
same,"β, k4/k2",[1],mTHPC: 8.7 μM
same,ξ photokinetic parameter,[1],mTHPC: 30.0 × 10^−3 cm^2mW^−1s^−1
same,"σ, k1/(k7[A])",[1],mTHPC: 2.97 × 10^−5 μM^−1
benzoporphyrin derivative monoacid ring A [BPD],Threshold [^1O2]dose,tumors in mice; Kim et. al. 2017,0.98 ± 012 (Kim et. al. 2017) mM
same,Threshold [^1O2]dose,tumors in mice; [4],"0.72 ± 0.21 (Zhu et. al., 2015) mM"
same,Threshold PDT-dose,"tumors in mice; surface PDT, Kim et. al., 2017","58 ± 12 (Kim et. al., 2017) μM J/cm^2"
same,Threshold Light Dose,tumors in mice; [5],"Approx. 40 (vascular, Sheng et. J/cm^2"
same,Threshold PDT-dose,tumors in mice; [5],"7.5 (vascular, Sheng et. al., μM J/cm^2"
same,"ε, PS extinction coefficient",[1]; 690 nm,BPD (690 nm): 0.0783 cm^−1μM^−1
same,"β, k4/k2",[1],BPD: 11.9 μM
same,ξ photokinetic parameter,[1],BPD: 51.0 × 10^−3 cm^2mW^−1s^−1
same,"σ, k1/(k7[A])",[1],BPD: 1.7 × 10^−5 μM^−1
2-(1-Hexyloxyethyl)-2-devinyl pyropheophorbide [HPPH],Threshold [^1O2]dose,"tumors in mice; Penjweini et. al., 2016","0.98 ± 0.11 (Penjweini et. al., mM"
same,Threshold PDT-dose,"tumors in mice; surface PDT, Penjweini et. al., 2016","52.62 ± 14.9 (Penjweini et. al., μM J/cm^2"
Photofrin,Threshold Fluence Rate φT,experimental tumours [2]; [6],"16.5 (Shafirstein et. al., 2018) mW/cm^2"
same,Threshold Light Dose,experimental tumours [2]; I-PDT,"≥45 (Shafirstein et. al., 2018) J/cm^2"
same,Threshold [^1O2]dose,"tumors in mice; Qiu et. al., 2016","> 1.0 (Qiu et. al., 2016) mM"
same,Threshold [^1O2]dose,tumors in mice; [4],"0.56 ± 0.26 (Zhu et. al., 2015) mM"
same,Threshold Light Dose,tumors in mice; [7],"Approx. 100 (Sheng et. al., 2019) J/cm^2"
same,Threshold PDT-dose,tumors in mice; [7],"439 (Sheng et. al., 2019) μM J/cm^2"
same,"ε, PS extinction coefficient",[1]; 630 nm,Photofrin (630 nm): 0.0035 cm^−1μM^−1
same,"β, k4/k2",[1],Photofrin: 11.9 μM
same,ξ photokinetic parameter,[1],Photofrin: 3.7 × 10^−3 cm^2mW^−1s^−1
same,"σ, k1/(k7[A])",[1],Photofrin: 7.6 × 10^−5 μM^−1
same,β,[1]; [8],11.9
same,"δ, low concentration correction",[1]; [8],33
same,ξ,[1]; [8],3.7E-03
same,σ,[1]; [8],7.6E-05
same,Threshold Fluence Rate φT,experimental tumours [3]; [6],"8.4 (Shafirstein et. al., 2018) mW/cm^2"
same,Threshold Light Dose,experimental tumours [3]; I-PDT,"≥45 (Shafirstein et. al., 2018) J/cm^2"
CC[C@H]1c2cc3[n-]c4c(c3C)C(=O)[C@H](C(=O)OC)c4c3nc(cc4[n-]c(cc(n2)[C@@H]1C)c(C(C)=O)c4C)[C@@H](C)[C@@H]3CCC(=O)O.[Pd+2] [Tookad],Threshold Light Dose,Human prostate,">23 (Davidson et.al., 2009) J/cm^2"
same,"β, k4/k2",[1],Tookad: 11.9 μM
same,ξ photokinetic parameter,[1],Tookad: 122 × 10^−3 cm^2mW^−1s^−1
same,"σ, k1/(k7[A])",[1],Tookad: 2.6 × 10^−5 μM^−1
